The experiment has as its target Human cytomegalovirus protease (Human herpesvirus 5). Description: Inhibitory activity against human cytomegalovirus (HCMV) protease.

Turning to `CC1(C)C(=O)N(C(=O)NCc2ccncc2)[C@@H]1Cc1ccccc1`, the 50% inhibitory concentration (IC50) was more than 300 µM.
In the case of `CS[C@@H]1C(=O)N(C(=O)NCc2ccncc2)[C@H]1Cc1ccccc1` [(2S,3S)-2-Benzyl-3-methylsulfanyl-4-oxo-azetidine-1-carboxylic acid (pyridin-4-ylmethyl)-amide] it was 6.9 µM.
Under `C[C@@H](NC(=O)N1C(=O)C[C@H]1Cc1ccccc1)c1ccccc1` [(R)-2-Benzyl-4-oxo-azetidine-1-carboxylic acid ((R)-1-phenyl-ethyl)-amide] stands more than 75 µM; under `CC1(C)C(=O)N(C(=O)NCc2ccncc2)[C@H]1Cc1ccccc1` [(S)-2-Benzyl-3,3-dimethyl-4-oxo-azetidine-1-carboxylic acid (pyridin-4-ylmethyl)-amide], more than 75 µM; under `CC(=O)Nc1ccc(CN(C)C(=O)N2C(=O)C[C@@H]2Cc2ccccc2)cc1` [(S)-2-Benzyl-4-oxo-azetidine-1-carboxylic acid (4-acetylamino-benzyl)-methyl-amide], 17 µM.
On to `CN(Cc1ccc(N)cc1)C(=O)N1C(=O)C[C@@H]1Cc1ccccc1` [(S)-2-Benzyl-4-oxo-azetidine-1-carboxylic acid (4-amino-benzyl)-methyl-amide], for which the half-inhibitory concentration (IC50) came to 20 µM.
`CN(Cc1ccc(Cl)cc1)C(=O)N1C(=O)C[C@@H]1Cc1ccccc1` [(S)-2-Benzyl-4-oxo-azetidine-1-carboxylic acid (4-chloro-benzyl)-methyl-amide] had a half-inhibitory concentration (IC50) of 6.9 µM.
Under `CN(Cc1ccc(C#N)cc1)C(=O)N1C(=O)C[C@@H]1Cc1ccccc1` [(S)-2-Benzyl-4-oxo-azetidine-1-carboxylic acid (4-cyano-benzyl)-methyl-amide] stands 6 µM; under `O=C1C[C@H](Cc2ccccc2)N1C(=O)Nc1ccc(F)cc1` [(S)-2-Benzyl-4-oxo-azetidine-1-carboxylic acid (4-fluoro-phenyl)-amide], 3.7 µM; under `CC(C)c1ccc(CN(C)C(=O)N2C(=O)C[C@@H]2Cc2ccccc2)cc1` [(S)-2-Benzyl-4-oxo-azetidine-1-carboxylic acid (4-isopropyl-benzyl)-methyl-amide], 6.4 µM.
In the case of `COc1ccc(NC(=O)N2C(=O)C[C@@H]2Cc2ccccc2)cc1` [(S)-2-Benzyl-4-oxo-azetidine-1-carboxylic acid (4-methoxy-phenyl)-amide] it was 3.9 µM; in that of `CCC[C@@H](NC(=O)N1C(=O)C[C@@H]1Cc1ccccc1)c1ccccc1` [(S)-2-Benzyl-4-oxo-azetidine-1-carboxylic acid ((R)-1-phenyl-butyl)-amide], 3.4 µM; in that of `C[C@@H](NC(=O)N1C(=O)C[C@@H]1Cc1ccccc1)c1ccccc1` [(S)-2-Benzyl-4-oxo-azetidine-1-carboxylic acid ((R)-1-phenyl-ethyl)-amide], 4 µM.
Consider `CC[C@@H](NC(=O)N1C(=O)C[C@@H]1Cc1ccccc1)c1ccccc1` [(S)-2-Benzyl-4-oxo-azetidine-1-carboxylic acid ((R)-1-phenyl-propyl)-amide], for which the midpoint of inhibition, the IC50, lay at 2.6 µM.
In the case of `C[C@H](NC(=O)N1C(=O)C[C@@H]1Cc1ccccc1)c1ccccc1` [(S)-2-Benzyl-4-oxo-azetidine-1-carboxylic acid ((S)-1-phenyl-ethyl)-amide] it was 42 µM; in that of `O=C1C[C@H](Cc2ccccc2)N1C(=O)NCc1ccccn1` [(S)-2-Benzyl-4-oxo-azetidine-1-carboxylic acid (pyridin-2-ylmethyl)-amide], 33 µM.
Under `O=C1C[C@H](Cc2ccccc2)N1C(=O)NCc1cccnc1` [(S)-2-Benzyl-4-oxo-azetidine-1-carboxylic acid (pyridin-3-ylmethyl)-amide] stands 10 µM; under `O=C1C[C@H](Cc2ccccc2)N1C(=O)NCc1ccncc1` [(S)-2-Benzyl-4-oxo-azetidine-1-carboxylic acid (pyridin-4-ylmethyl)-amide], 12 µM.
For the molecule `O=C1C[C@H](Cc2ccccc2)N1C(=O)N(Cc1ccccc1)OCc1ccccc1` [(S)-2-Benzyl-4-oxo-azetidine-1-carboxylic acid benzyl-benzyloxy-amide], the IC50 worked out at 13 µM.
In the case of `O=C1C[C@H](Cc2ccccc2)N1C(=O)N(Cc1ccccc1)C1CC1` [(S)-2-Benzyl-4-oxo-azetidine-1-carboxylic acid benzyl-cyclopropyl-amide] it was more than 75 µM; in that of `CON(Cc1ccccc1)C(=O)N1C(=O)C[C@@H]1Cc1ccccc1` [(S)-2-Benzyl-4-oxo-azetidine-1-carboxylic acid benzyl-methoxy-amide], 6.2 µM; in that of `O=C1C[C@H](Cc2ccccc2)N1C(=O)NCc1ccccc1` [(S)-2-Benzyl-4-oxo-azetidine-1-carboxylic acid benzylamide], 10 µM.
In the case of `O=C1C[C@H](Cc2ccccc2)N1C(=O)NC1CCCCC1` [(S)-2-Benzyl-4-oxo-azetidine-1-carboxylic acid cyclohexylamide], the IC50 came to 8.4 µM.
Under `CN(Cc1ccccc1[N+](=O)[O-])C(=O)N1C(=O)C[C@@H]1Cc1ccccc1` [(S)-2-Benzyl-4-oxo-azetidine-1-carboxylic acid methyl-(2-nitro-benzyl)-amide] stands 11 µM; under `CN(Cc1cccc([N+](=O)[O-])c1)C(=O)N1C(=O)C[C@@H]1Cc1ccccc1` [(S)-2-Benzyl-4-oxo-azetidine-1-carboxylic acid methyl-(3-nitro-benzyl)-amide], 6.9 µM; under `Cc1ccc(CN(C)C(=O)N2C(=O)C[C@@H]2Cc2ccccc2)cc1` [(S)-2-Benzyl-4-oxo-azetidine-1-carboxylic acid methyl-(4-methyl-benzyl)-amide], 8.9 µM.
With `CN(Cc1ccc([N+](=O)[O-])cc1)C(=O)N1C(=O)C[C@@H]1Cc1ccccc1` [(S)-2-Benzyl-4-oxo-azetidine-1-carboxylic acid methyl-(4-nitro-benzyl)-amide], the IC50 was 1.5 µM.
Under `CN(Cc1ccc(S(=O)(=O)C(F)(F)F)cc1)C(=O)N1C(=O)C[C@@H]1Cc1ccccc1` [(S)-2-Benzyl-4-oxo-azetidine-1-carboxylic acid methyl-(4-trifluoromethanesulfonyl-benzyl)-amide] stands 4.3 µM.
Regarding `CN(Cc1ccc(SC(F)(F)F)cc1)C(=O)N1C(=O)C[C@@H]1Cc1ccccc1` [(S)-2-Benzyl-4-oxo-azetidine-1-carboxylic acid methyl-(4-trifluoromethylsulfanyl-benzyl)-amide], the IC50 amounted to 6.9 µM.
`Cc1ccc(NC(=O)N2C(=O)C[C@@H]2Cc2ccccc2)cc1` [(S)-2-Benzyl-4-oxo-azetidine-1-carboxylic acid p-tolylamide] registered an IC50 of 5.2 µM.

One may read the IC50 as the concentration needed to halve the response being measured. Lower therefore signals higher potency.

Values taken from BindingDB's records for doi:10.1021/jm980131z (Boehringer Ingelheim (Canada), 1998).
